Macular pigment, AMD incidence and visual field loss data for 2 compounds are collected here from patent publication US20100028459A1, “NUTRITIONAL SUPPLEMENT COMPOSITION FOR TREATMENT OF OCULAR DISEASES” (priority 2006, published 2010).

The conditions of assay [1]: lutein supplementation in human; cited from earlier work.
Assay [2] is described as follows: lutein supplementation and AMD incidence (our studies). The class given is in vivo. To be noted: supplementation of 10 mg/day. How it is done: Therefore, the subject composition preferably provides preferably 10 mg of pure lutein per composition, e.g. per capsule.
For assay [3] the following is noted: AMD patients; cited from earlier work.

As to `CC1=C[C@H](O)CC(C)(C)[C@H]1/C=C/C(C)=C/C=C/C(C)=C/C=C/C=C(C)/C=C/C=C(C)/C=C/C1=C(C)C[C@@H](O)CC1(C)C` [Lutein], the macular pigment result in assay [1] is given as “increased macular pigment”. In addition, in assay [2], the AMD incidence result was “decreases the AMD incidence”.

In the case of Zinc, the visual field loss result in assay [3] was “slows visual field loss”.
